From publication PMC8144059 (Drug metabolism and pharmacokinetics, 2021)

Target: CYP3A4.1 (WT) (Homo sapiens, UniProt P08684)
Details: Figure 2, CYP3A4.1, TST 10–500 μM, n=5

CYP3A4.1 (WT), sequence (P08684 2-503): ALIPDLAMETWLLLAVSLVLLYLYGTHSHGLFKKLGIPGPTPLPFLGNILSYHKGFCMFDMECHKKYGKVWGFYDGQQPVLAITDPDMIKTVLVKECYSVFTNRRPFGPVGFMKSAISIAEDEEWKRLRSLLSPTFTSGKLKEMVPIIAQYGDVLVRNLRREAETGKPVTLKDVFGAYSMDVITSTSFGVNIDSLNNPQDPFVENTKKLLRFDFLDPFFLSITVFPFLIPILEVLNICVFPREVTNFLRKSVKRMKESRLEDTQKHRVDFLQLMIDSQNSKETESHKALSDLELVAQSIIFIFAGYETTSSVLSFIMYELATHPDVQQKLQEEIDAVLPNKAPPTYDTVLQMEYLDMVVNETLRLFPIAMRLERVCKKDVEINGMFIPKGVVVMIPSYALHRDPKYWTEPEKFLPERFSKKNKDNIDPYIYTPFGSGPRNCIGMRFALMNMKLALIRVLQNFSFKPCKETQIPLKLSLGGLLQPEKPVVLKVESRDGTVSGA

SMILES: OC(Cn1cncn1)(Cn1cncn1)c1ccc(F)cc1F [FCZ, fluconazole]
- Inhibition of CYP3A4 activity (TST metabolism): inhibited CYP3A4 activity in a concentration-dependent manner
